From patent publication US20140315972A1, “RS)-2-(2-oxo-4-phenylpyrrolidin-1-yl)acetamide compound having modulatory activity with a commensurate effect, pharmaceutical substance (variants) and its application, composition (variants) thereof” (priority 2011, published 2014)
Values joined by “and” are separate entries in the source; they are usually repeats but may differ in a detail not shown here. Equal entries are not always repeated. Marks after values point to notes of the source that are not given here.

Experiments:
[1] = Acute toxicity, single intraperitoneal injection in rats aged 30-35 days; format: in vivo; details: both sexes, white outbred, rat, in vivo, ip; rats 30-35 days; single i.p.
Experimental: (§1) Tables 2, 2.1 and 2.2 present the results of acute toxicity studies of the Compounds with active substance content in at least white outbred male mice (body weight 18-24 g) and white outbred rats 30-35 days of age, of both sexes with a single dose. Calculation of toxic doses was made using the Wilcoxon and Litchfield method. Observations were made over 24 hours and 14 days after a single dose.
(§2) LD50 in rat pups after intragastric administration was not found. Intragastric administration to rat pups of doses of more than 1000 mg/kg is technically impossible due to the small volume of the stomach (Table 2.2).

rats [2] = assay: as above; format: in vivo
Experimental: as §1, §2

cortisol = assay: Plasma cortisol level (Tsf-activity) in August and Wistar rats; format: in vivo; details: for Tsf-activity by cortisol at 3 hours vs control / plasma cortisol at 60 min / Tsf-activity by cortisol at 60 min vs control: i.p. 1.0-750 mg/kg, averaged
rats [3] = assay: Hemorrhagic stroke (intracerebral post-traumatic hematoma), McGrow scale; format: in vivo
Excerpt: The stroke condition was simulated in male rats (270-320 g) at a local cerebral hemorrhage, as a hemorrhagic stroke (intracerebral post-traumatic hematoma) by the method of A. N. Makarenko et al (1990) and at cerebral ischemia with distal occlusion of the middle cerebral artery (Chen S. T., Hsu C. Y., Hogan E. L., Maricq H., Balentine J. D. A model of focal ischemic stroke in the rat reproducible extensive cortical infarction//Stroke.—1989, V. 17, No 4, p. 738-743) as an ischemic stroke. Phenotropil was injected intraperitoneally at hemorrhagic stroke at 100 mg/kg immediately after surgery, and one hour before and two hours after the surgery (at doses of 100, 200 and 300 mg/kg) at ischemic stroke. Control animals were treated adequately with distilled water.

rats [4] = assay: Training ability of immature under-trained rats in the CRPA test; format: in vivo; details: for LP1 (training) / LP2 (at 24 h) / ΔLP: under-trained rats 30-35 days
Experimental: In studying immature animals, it must be considered that to generate CRPA it is required, as was established, to apply higher educational incentives (0.6 mA, 8 pulses vs 5 pulses at 0.45 mA in adult rats) with re-training (after 48 hours). Development of amnesia also requires a higher dose of scopolamine (1.3 mg/kg) in rat pups. […] Phenotropil has not only a psychomodulatory (Ψ-modulatory) activity but also a Ψ-operandmodulatory activity given that the mnemotropic effect is associated with the expression of specific proteins and genes involved in memory, attention and learning.

mice = assay: Hot plate test (pain sensitivity); format: in vivo; details: for Latent period (hot plate): mice
Excerpt: The analgesic effect is present at all studied doses and increases with increasing dose.

rats [5] = assay: Hypoxia with hypercapnia in 7-day-old rats; format: in vivo
rats [6] = assay: Forced swimming by Porsolt (behavioral despair), rat pups; format: in vivo; details: for Duration of immobilization vs control: listed as Phenotropil
Experimental: The antidepressant effect of Phenotropil was studied in adult rats (185-218 g) and rat pups of 28-35 days of age (85-110 g). The test drugs were injected intraperitoneally in the first case and intragastrically in the second case 40 min before the tests. The methods of behavioral despair during forced swimming (Porsolt et al., 1978) and forced swimming with freely rotating wheels (Nomura et al., 1982) were used.

Solubility = format: physicochemical
Excerpt: (§3) The crystalline powder of the Phenotropil substances is not volatile, has white, rarely white to slightly yellowish or slightly cream color, bitter taste (bitter taste that disappears in the mouth rather quickly after dissolution, leaving no unpleasant sensations). In the related products, the bitter taste persists. The Compounds are sparingly soluble in water and saline, moderately soluble in 96.0% alcohol and chloroform. Readily soluble in water and saline under heating, but the solutions are not stable during cooling and storage under normal conditions (not more than 2 hours, which is acceptable for the extemporaneous preparations and research), moderately soluble in 5.0% glucose solution, dissolve well in the presence of solubilizers and emulsifiers. Tween80 and cyclodextrins increase solubility in water, especially Tween80, while cyclodextrins have limitations by concentration. Sterile 0.001-3% solutions of Phenotropil in the presence of cyclodextrin or Tween (water for injection, Phenotropil, cyclodextrin (or Tween solution) were thoroughly stirred for 30 minutes, filtered, dispensed into ampoules of neutral glass, the ampoules were sealed and sterilized for 15 minutes at 120° C.). Sterile solutions are storage stable for at least 12 months. The ultimate shelf life is not specified; the samples are being stored.

Stability during storage = format: physicochemical; details: sterile 0.001-3% solutions with cyclodextrin or Tween, ampoules
Experimental: The resulting compositions are stable. The studies were conducted in accordance with regulatory requirements for determination when stored in natural conditions (in a dry, dark place at a temperature not exceeding 30° C.) and using the standard method of accelerated aging.
as §3, with “Sterile 0.001-3% solutions of Phenotropil in the presence of cyclodextrin or Tween (water for injection, Phenotropil, cyclodextrin (or Tween solution) were thoroughly stirred for 30 minutes, filtered, dispensed into ampoules of neutral glass, the ampoules were sealed and sterilized for 15 minutes at 120° C.). Sterile solutions are storage stable for at least 12 months. The ultimate shelf life is not specified; the samples are being stored.” left out

[7] = rats, hemorrhagic stroke, 100 mg/kg i.p., 1 day after surgery

For NC(=O)CN1CC(c2ccccc2)CC1=O (racemic) [Compound 1, (RS)-2-(2-oxo-4-phenylpyrrolidine-1-yl)acetamide], the LD50 at 14 days [1] was 1030 mg/kg, the LD16 (rats [2]; rats 30-35 days, single i.p.) was “LD16 = 906.7 mg/kg” and the LD84 (rats [2]; rats 30-35 days, single i.p.) was “LD84 = 1159.0 mg/kg”. For the same molecule, the Dead/total number (rats [2]; rats 30-35 days, single i.p. 800 mg/kg) was 0/10, the Dead/total number (rats [2]; rats 30-35 days, single i.p. 1000 mg/kg) was 4/10 and the Dead/total number (rats [2]; rats 30-35 days, single i.p. 1100 mg/kg) was 9/10. The Dead/total number (rats [2]; rats 30-35 days, single i.p. 1200 mg/kg) was 9/10, the Dead/total number (rats [2]; rats 30-35 days, single i.p. 1500 mg/kg) was 10/10 and the “% of dead rat pups” value (rats [2]; single i.p. 800 mg/kg) was 0%. For the same molecule, the “% of dead rat pups” value (rats [2]; single i.p. 1000 mg/kg) was 40%, the “% of dead rat pups” value (rats [2]; single i.p. 1100 mg/kg) was 90% and the “% of dead rat pups” value (rats [2]; single i.p. 1200 mg/kg) was 90%. The “% of dead rat pups” value (rats [2]; single i.p. 1500 mg/kg) was 100%, the “Tsf-activity by cortisol at 3 hours vs control” value (cortisol; August rats) was “+6.8%” and the “plasma cortisol at 60 min” value (cortisol; August rats) was 45.6 ± 4.1 nmol/L. For the same molecule, the “Tsf-activity by cortisol at 60 min vs control” value (cortisol; August rats, listed as (RS)-2-(2-oxo-4-phenylpyrrolidin-1-yl)acetamide) was “+14.1%”, the “Tsf-activity by cortisol at 60 min vs control” value (cortisol; August rats, listed as Phenotropil) was “+14.1* %” and the “modulation factor change compared to the control” value (cortisol; August rats, single dose) was −11.5%. The “Tsf-activity by cortisol at 3 hours vs control” value (cortisol; Wistar rats) was −7.6%, the “plasma cortisol at 60 min” value (cortisol; Wistar rats) was 50.9 ± 4.4 nmol/L and the “Tsf-activity by cortisol at 60 min vs control” value (cortisol; Wistar rats, listed as (RS)-2-(2-oxo-4-phenylpyrrolidin-1-yl)acetamide) was “+2.0%”. The “biologically active dose (reliable effect on plasma cortisol), starting from” value (cortisol; rats, i.p., range tested 0.5-750.0 mg/kg) was no less than 1.0 mg/kg, the “prevention of lethal outcomes, % of cases” value (rats [3]; hemorrhagic and ischemic stroke in rats, follow up 14 days) was 100% and the “% of animals with circling movements” value (rats [3]; [7]) was 0* %. For the same molecule, the “% of animals with lethargy, slowness of movement” value (rats [3]; [7]) was 30%, the “% of animals with paralysis of 1-4 limbs” value (rats [3]; [7]) was 0* % and the “% of animals with paresis of 1-4 limbs” value (rats [3]; [7]) was 20* %. The “% of animals with weakness of limbs” value (rats [3]; [7]) was 30* %, the Mortality (rats [3]; [7]) was 0* % and the “mnemotropic effect by ΔLP index versus saline treated control” value (rats [4]; 50 mg/kg) was “+133%”. For the same molecule, the “mnemotropic effect by ΔLP index versus saline treated control” value (rats [4]; 100 mg/kg) was “+504%”, the “mnemotropic effect by ΔLP index versus saline treated control” value (rats [4]; 300 mg/kg) was “+696%” and the “LP1 (training)” value (rats [4]; intragastric 50 mg/kg) was 7.2 ± 2.1. For the same molecule, the “LP2 (at 24 h)” value (rats [4]; intragastric 50 mg/kg) was 18.4 ± 4.6, the ΔLP (rats [4]; intragastric 50 mg/kg) was 11.2 ± 3.4 and the “LP1 (training)” value (rats [4]; intragastric 100 mg/kg) was 7.2 ± 2.1. The “LP2 (at 24 h)” value (rats [4]; intragastric 100 mg/kg) was 36.2 ± 4.6, the ΔLP (rats [4]; intragastric 100 mg/kg) was 29.0 ± 3.4 and the “LP1 (training)” value (rats [4]; intragastric 300 mg/kg) was 6.8 ± 1.2^. For the same molecule, the “LP2 (at 24 h)” value (rats [4]; intragastric 300 mg/kg) was 45.0 ± 7.5, the ΔLP (rats [4]; intragastric 300 mg/kg) was 38.2 ± 4.4 and the “reduction of pain sensitivity” value (mice; 50 mg/kg, 30 minutes) was 14.3%. The “reduction of pain sensitivity” value (mice; 50 mg/kg, 60 minutes) was 8.3%, the “reduction of pain sensitivity” value (mice; 50 mg/kg, 120 minutes) was 10.8% and the “reduction of pain sensitivity” value (mice; 100.0 mg/kg, 30 minutes) was 12.4%. For the same molecule, the “reduction of pain sensitivity” value (mice; 100.0 mg/kg, 60 minutes) was 12.5%, the “reduction of pain sensitivity” value (mice; 100.0 mg/kg, 120 minutes) was 31.5% and the “reduction of pain sensitivity” value (mice; 300.0 mg/kg, 30 minutes) was 71.4%. The “reduction of pain sensitivity” value (mice; 300.0 mg/kg, 60 minutes) was 61.5%, the “Latent period (hot plate)” value (mice; 50.0 mg/kg i.p., 30 min) was 12.0 ± 1.1 min and the “Latent period (hot plate)” value (mice; 50.0 mg/kg i.p., 60 min) was 11.7 ± 0.7 min. For the same molecule, the “Latent period (hot plate)” value (mice; 50.0 mg/kg i.p., 120 min) was 12.3 ± 0.8 min, the “Latent period (hot plate)” value (mice; 100.0 mg/kg i.p., 30 min) was 11.8 ± 0.7^ min and the “Latent period (hot plate)” value (mice; 100.0 mg/kg i.p., 60 min) was 13.5 ± 1.4 min. For the same molecule, the “Latent period (hot plate)” value (mice; 100.0 mg/kg i.p., 120 min) was 14.6 ± 1.4 min, the “Latent period (hot plate)” value (mice; 300.0 mg/kg i.p., 30 min) was 18.0 ± 1.0 min and the “Latent period (hot plate)” value (mice; 300.0 mg/kg i.p., 60 min) was 18.2 ± 0.8 min. The “Latent period (hot plate)” value (mice; 300.0 mg/kg i.p., 120 min) was 22.2 ± 1.0 min, the “Duration of life of animals” value (rats [5]; 50 mg/kg) was 83.3 ± 7.9 min and the “Duration of life of animals” value (rats [5]; 100 mg/kg) was 123.2 ± 2.9 min. For the same molecule, the Duration of immobilization (rats [6]; intragastric 100 mg/kg) was 86.35 ± 51.97 s, the “Duration of immobilization vs control” value (rats [6]; intragastric 100 mg/kg) was −79.8% and −79.77 * % and the Duration of immobilization (rats [6]; intragastric 200 mg/kg) was 118.72 ± 80.04 s. For the same molecule, the “Duration of immobilization vs control” value (rats [6]; intragastric 200 mg/kg) was −72.2% and −72.19 * %, the “solubility in 96% alcohol and chloroform” value (Solubility) was “moderately soluble” and the “solubility in water (and saline)” value (Solubility) was “sparingly soluble in water”. For the same molecule, the “storage stability of sterile solutions” value (Stability during storage) was “at least 12 months”.
